From patent publication US20070128217A1 (priority 2003, published 2007)

Legend:
[1] = tested on: antibodies in sera from SARS patients (sera 1a, 1b, 2, 6, 37, 62, London, SARS-yellow, SARS-green); assay type: binding, human; parameters: Binding of serum 6 to linear peptides of protein X1 of SARS-CoV Urbani / Binding of serum 37 to linear peptides of protein X1 of SARS-CoV Urbani / Binding of serum 6 to looped/cyclic peptide (PEPSCAN-ELISA) / Binding of serum 37 to looped/cyclic peptide (PEPSCAN-ELISA) / Binding of serum 37 to looped/cyclic peptides of protein X1 of SARS-CoV Urbani / Binding of serum 6 to linear peptides of protein X2 / Binding of serum 37 to linear peptides of protein X2 / Binding of serum 37 to looped/cyclic peptides of protein X2 of SARS-CoV Urbani / Binding of serum 6 to linear peptides of protein M of SARS-CoV Urbani / Binding of serum 37 to linear peptides of protein M of SARS-CoV Urbani / Binding of serum 6 to looped/cyclic peptides of protein M of SARS-CoV Urbani / Binding of serum 37 to looped/cyclic peptides of protein M of SARS-CoV Urbani / Binding of serum 6 to linear peptides of protein X3 of SARS-CoV Urbani / Binding of serum 37 to linear peptides of protein X3 of SARS-CoV Urbani / Binding of serum 37 to looped/cyclic peptides of protein X3 of SARS-CoV Urbani / Binding of serum 6 to linear peptides of protein X4 of SARS-CoV Urbani / Binding of serum 37 to linear peptides of protein X4 of SARS-CoV Urbani / Binding of serum 37 to looped/cyclic peptides of protein X4 of SARS-CoV Urbani / Binding of serum 6 to linear peptides of protein X5 of SARS-CoV Urbani / Binding of serum 37 to linear peptides of protein X5 of SARS-CoV Urbani / Binding of serum 37 to looped/cyclic peptides of protein X5 of SARS-CoV Urbani / Binding of serum 6 to linear peptides of protein N of SARS-CoV Urbani / Binding of serum 37 to linear peptides of protein N of SARS-CoV Urbani / Binding of serum 6 to linear peptide (PEPSCAN-ELISA) / Binding of serum 1a to looped/cyclic peptides of protein N of SARS-CoV Urbani / Binding of serum 1b to looped/cyclic peptides of protein N of SARS-CoV Urbani / Binding of serum 2 to looped/cyclic peptides of protein N of SARS-CoV Urbani / Binding of serum 6 to looped/cyclic peptides of protein N of SARS-CoV Urbani / Binding of serum 37 to looped/cyclic peptides of protein N of SARS-CoV Urbani / Binding of serum 62 to looped/cyclic peptides of protein N of SARS-CoV Urbani / Binding of serum London to looped/cyclic peptides of protein N of SARS-CoV Urbani / Binding of serum SARS-green to looped/cyclic peptides of protein N of SARS-CoV Urbani: unit not given here
[2] = tested on: control sera (pooled serum of ten healthy LUMC hospital workers; commercial negative donor pooled serum from the Dutch bloodbank); assay type: binding, human; parameters: Binding of Control serum LUMC to linear peptides / Binding of Control serum Blood-bank to linear peptides / Binding of Control serum LUMC to looped peptides / Binding of Control Serum Blood-Bank to Looped peptides / Binding of Control serum LUMC to linear peptides of the protein M of SARS-CoV Urbani / Binding of Control serum Blood-bank to linear peptides of the protein M of SARS-CoV Urbani / Binding of Control serum LUMC to looped peptides of the protein M of SARS-CoV Urbani / Binding of Control Serum Blood-Bank to Looped peptides of the protein M of SARS-CoV Urbani: unit not given here
[3] = tested on: rabbit serum obtained by immunizing a rabbit with the SARS-CoV strain Frankfurt 1; assay type: binding; parameters: Binding of a rabbit serum to linear peptides / Binding of a rabbit serum to looped peptides / Rabbit serum linear peptides / Rabbit serum looped peptides / Binding of a rabbit serum to linear peptides of protein N of SARS-CoV Urbani (Rabbit serum linear peptides) / Binding of a rabbit serum to looped/cyclic peptides of protein N of SARS-CoV Urbani (Rabbit serum looped peptides): unit not given here
[4] = tested on: recombinant human anti-SARS-CoV antibody 03-018; assay type: binding; parameters: Binding of antibody 03-018 to linear peptides of the N protein of SARS-CoV Urbani / Binding of antibody 03-018 to looped/cyclic peptides of the N protein of SARS-CoV Urbani: unit not given here

| Sequence | Binding of serum 1a to linear peptides of protein N of SARS-CoV Urbani [1] | Binding of serum 1a to looped/cyclic peptides of protein N of SARS-CoV Urbani [1] | Binding of serum 1b to linear peptides of protein N of SARS-CoV Urbani [1] | Binding of serum 1b to looped/cyclic peptides of protein N of SARS-CoV Urbani [1] | Binding of serum 2 to linear peptides of protein N of SARS-CoV Urbani [1] | Binding of serum 2 to looped/cyclic peptides of protein N of SARS-CoV Urbani [1] | Binding of serum 6 to linear peptides of protein N of SARS-CoV Urbani [1] | Binding of serum 6 to looped/cyclic peptides of protein N of SARS-CoV Urbani [1] | Binding of serum 37 to linear peptides of protein N of SARS-CoV Urbani [1] | Binding of serum 37 to looped/cyclic peptides of protein N of SARS-CoV Urbani [1] | Binding of serum 62 to linear peptides of protein N of SARS-CoV Urbani [1] | Binding of serum 62 to looped/cyclic peptides of protein N of SARS-CoV Urbani [1] | Binding of serum London to linear peptides of protein N of SARS-CoV Urbani [1] | Binding of serum London to looped/cyclic peptides of protein N of SARS-CoV Urbani [1] | Binding of serum SARS-green to linear peptides of protein N of SARS-CoV Urbani [1] | Binding of serum SARS-green to looped/cyclic peptides of protein N of SARS-CoV Urbani [1] | Binding of serum SARS-yellow to linear peptides of protein N of SARS-CoV Urbani [1] | Binding of serum SARS-yellow to looped/cyclic peptides of protein N of SARS-CoV Urbani [1] | Binding of a rabbit serum to linear peptides of protein N of SARS-CoV Urbani (Rabbit serum linear peptides) [3] | Binding of a rabbit serum to looped/cyclic peptides of protein N of SARS-CoV Urbani (Rabbit serum looped peptides) [3] | further results |
| --- | --- | --- | --- | --- | --- | --- | --- | --- | --- | --- | --- | --- | --- | --- | --- | --- | --- | --- | --- | --- | --- |
| RIGMEVTPSGTWLTY | 0.2 | 0.4 | 0.1 | 0.2 | 0.1 | 0.5 | 0.1 | 0.3 | 0.4 | 0.7 | 0.4 | 0.8 | 0.3 | 0.6 | 0.5 | 0.5 | 0.9 | 0.5 | 0.0 | 0.5 | Control Serum Blood-Bank Looped peptides [2]: 0.8; Control serum Blood-bank linear peptides [2]: 0.5; Control serum LUMC linear peptides [2]: 0.5; Control serum LUMC looped peptides [2]: 0.7; Binding of antibody 03-018 to linear peptides of the N protein of SARS-CoV Urbani [4]: 0.1; Binding of antibody 03-018 to looped/cyclic peptides of the N protein of SARS-CoV Urbani [4]: 0.2 |
| RITFGGPTDSTDNNQ | 0.2 | 0.3 | 0.1 | 0.2 | 0.2 | 0.2 | 0.1 | 0.2 | 0.8 | 0.5 | 0.6 | 0.3 | 0.5 | 0.3 | 0.5 | 0.4 | 1.3 | 0.2 | 0.3 | 0.1 | Binding of Control Serum Blood-Bank to Looped peptides [2]: 0.6; Binding of Control serum Blood-bank to linear peptides [2]: 0.6; Binding of Control serum LUMC to linear peptides [2]: 0.5; Binding of Control serum LUMC to looped peptides [2]: 0.5; Recognition of the peptide by antibody 03-018 [4]: recognized |
| RPQGLPNNTASWFTA | 0.3 | 0.5 | 0.1 | 0.3 | 0.2 | 0.5 | 0.2 | 0.4 | 0.7 | 0.9 | 0.7 | 0.8 | 0.5 | 0.5 | 0.3 | 0.5 | 0.4 | 0.7 | 0.1 | 0.5 | Binding of Control Serum Blood-Bank to Looped peptides [2]: 0.9; Binding of Control serum Blood-bank to linear peptides [2]: 0.8; Binding of Control serum LUMC to linear peptides [2]: 0.8; Binding of Control serum LUMC to looped peptides [2]: 0.9; Binding of antibody 03-018 to linear peptides of the N protein of SARS-CoV Urbani [4]: 0.1; Binding of antibody 03-018 to looped/cyclic peptides of the N protein of SARS-CoV Urbani [4]: 0.2 |
